{
  "source": "patent US20120003191A1",
  "about": "“VALPROIC ACID, DERIVATIVES, ANALOGUES, AND COMPOSITIONS INCLUDING SAME AND METHODS FOR THEIR THERAPEUTIC USE” (priority 2009, published 2012)",
  "key": {"[1]": {"details": "mice; cited from earlier work"}, "α7+/− myotubes [2]": {"test_system": "α7+/− myotubes", "experiment": "Quantification of apoptosis in myotubes (TUNEL assay)", "assay_type": "cell-based, mouse", "experimental": "Differentiating cultures of α7^+/− cells on 1% gelatin-coated Lab-Tek 8-well chamber slides (Nalge-Nunc International) were exposed to 2 mM VPA on day two of differentiation, and fresh VPA in differentiation medium was added every 24 hours. On day eight of differentiation, the DeadEnd Fluorometric TUNEL assay (Promega) was used to label apoptotic nuclei, following the manufacturer's instructions. The numbers of clusters of apoptotic nuclei in each chamber were counted."}, "p70S6K": {"test_system": "p70S6K", "experiment": "Western blotting of activated p70S6K in α7+/− myotubes", "assay_type": "cell-based, mouse", "details": "VPA for 48 or 72 hours", "experimental": "(§1) α7^+/− myogenic cells were cultured on 1% gelatin-coated plastic plates in Ham's F-10 growth medium (20% FBS, 0.5% chick embryo extract, 5 ng/ml bFGF, 2 mM glutamine, 100 U/ml penicillin and 100 μg/ml streptomycin). After six passages, cells were grown in DMEM containing 20% FBS, 0.5% chick embryo extract, 2 mM glutamine, 100 U/ml penicillin and 100 μg/ml streptomycin. Differentiation was induced by switching the medium to DMEM containing 2% horse serum and antibiotics when cells attained 90% confluence. After 48 hours of differentiation, 2 mM VPA was added and supplied fresh every 24 hours. Wortmannin was used at 100 nM and added fresh every 24 hours.\n(§2) Cell lysates of differentiating cells on 60 mm dishes were prepared as follows: the cells were washed twice with PBS and 200 μl Triton X-100 lysis buffer (2% Triton X-100, 20 mM Tris-Cl, pH 7.4, 150 mM NaCl, 1 mM EDTA, 1 mM EGTA, 2.5 mM NaPPi, 1 mM β-glycerophosphate, 1 mM sodium vanadate, 1:200 Protease Inhibitor Cocktail (EMD Chemicals, San Diego, Calif.) and 1 mM PMSF) were added. […] Protein concentrations were determined by the Bradford assay. […] The supernatants were collected and protein concentrations were determined spectrophotometrically at OD260 and OD280. […] ImageQuant analysis software (Molecular Dynamics, Sunnyvale, Calif.) was used to quantify band intensity."}, "[3]": {"details": "humans; cited from earlier work"}, "α7B integrin": {"test_system": "α7B integrin", "experiment": "Western blotting of α7B integrin in α7+/− myotubes", "assay_type": "cell-based, mouse", "details": "2 mM VPA for 72 hours", "experimental": "as §1, §2"}, "mdx/utrn−/− mice": {"test_system": "mdx/utrn−/− mice", "experiment": "Quantification of Evan's blue dye uptake in quadriceps", "assay_type": "in vivo, mouse", "details": "240 mg/kg i.p. twice daily for 5 weeks", "experimental": "mdx/utrn−/− mice lack both dystrophin and utrophin, and were bred and genotyped as reported in Burkin, et al., Enhanced expression of the alpha 7 beta 1 integrin reduces muscular dystrophy and restores viability in dystrophic mice, J. Cell Biol. 152:1207-18 (2001). 240 mg/kg body weight of VPA was injected intraperitoneally twice daily into mdx/utrn^−/− mice (n=9) starting at 3 weeks of age, for a period of 5 weeks. Control mice were injected with saline (n=9). Body-weights were determined daily. On the 35th day of injection of VPA, mice were injected intraperitoneally with 100 mg/kg body weight of Evan's blue dye. After 24 hours, the quadriceps muscles were collected, frozen in liquid nitrogen-cooled isopentane and stored at −80° C. 8 μm cryosections of quadriceps were fixed in ice-cold methanol for 1 minute and washed in PBS three times for 5 minutes each. To delineate muscle fibers, the sections were incubated for 10 minutes at room temperature in FITC-conjugated wheat-germ agglutinin (WGA) (Invitrogen) diluted 1:500 in PBS. The sections were washed three times in PBS, 5 minutes each time, and the percentage of Evan's blue dye positive fibers in three sections taken 40 μm apart were counted (approximately 5000 fibers total) for each mouse."}, "mTOR": {"test_system": "mTOR", "experiment": "Western blotting of activated mTOR in α7+/− myotubes", "assay_type": "cell-based, mouse", "details": "VPA for 48 or 72 hours", "experimental": "as §1, §2"}, "α7+/− myotubes [4]": {"test_system": "α7+/− myotubes", "experiment": "Quantification of myotube hypertrophy", "assay_type": "cell-based, mouse", "experimental": "as §1\n[…] The cells were stained with anti-myosin heavy chain antibody (MF-20, 1:3 in 1% BSA in PBS) and FITC-conjugated donkey anti-mouse secondary antibody (1:200 in 1% BSA in PBS) for 1 hour each, and mounted in Vectashield with DAPI (Vector Laboratories, Burlingame, Calif.). Micrographs of ten fields were taken for VPA-treated and control myotubes using a Leica DMRXA2 microscope (Leica Microsystems, Germany), AxioCam digital camera (Zeiss Inc., Thorwood, N.Y.) and Openlab software (Improvision, Lexington, Mass.). Areas of myosin heavy chain positive myotubes were measured using Openlab software and the numbers of nuclei in each myotube were counted.\nTo test whether Akt activation by VPA in α7^+/− myotubes is dependent on PI3K, α7^+/− cells were differentiated for 48 hours and treated for 72 hours with 2 mM VPA with or without 100 nM Wortmannin. Fresh drugs were added every 24 hours. Phase-contrast micrographs of the cultures were captured at the end of 72 hours of treatment. To determine status of Akt activation in the cultures, α7^+/− myotubes were treated as above and protein extracts were made at the end of 72 hours of treatment using a 2% Triton X-100 extraction buffer (see below). Immunoblotting for phospho- and total Akt were done as detailed below."}},
  "data": [
    {"smiles": "CCCC(CCC)C(=O)O", "note": "[VPA, valproic acid]", "values": [
      {"measurement": "half-life", "setting": "[1]", "result": "about 45 minutes"},
      {"measurement": "fewer apoptotic nuclei (TUNEL positive nuclear clusters) compared with control cells", "setting": "α7+/− myotubes [2]; 2 mM VPA from day 2 of differentiation, day 6 of treatment", "result": "greater than 5 fold"},
      {"measurement": "appearance of cultures after day 8 (controls vacuolated, some detachment)", "setting": "α7+/− myotubes [2]; 2 mM VPA, phase-contrast", "result": "appeared relatively normal"},
      {"measurement": "levels of activated p70S6K", "setting": "p70S6K", "result": "higher levels"},
      {"measurement": "half life", "setting": "[3]", "result": "approximately 14 hours"},
      {"measurement": "α7B integrin isoform increase", "setting": "α7B integrin", "result": 1.5, "unit": "fold"},
      {"measurement": "fewer damaged (Evans blue positive) fibers than saline", "setting": "mdx/utrn−/− mice", "result": "approximately 2 fold"},
      {"measurement": "levels of activated mTOR", "setting": "mTOR", "result": "higher levels"},
      {"measurement": "number of nuclei per myotube compared to untreated controls", "setting": "α7+/− myotubes [4]; 2 mM VPA", "result": "greater numbers of nuclei per myotube"},
      {"measurement": "myotube area per nucleus, greater than control", "setting": "α7+/− myotubes [4]; 2 mM VPA, 72 hours", "result": 1.6, "unit": "fold"},
      {"measurement": "myotube size compared to controls (micrographs)", "setting": "α7+/− myotubes [4]; 2 mM VPA, 72 hours", "result": "larger compared to controls"},
      {"measurement": "myotube size compared to controls after 1 hour exposure", "setting": "α7+/− myotubes [4]; 30 mM VPA for 1 hour, observed 72 hours later", "result": "larger compared to controls"}
    ]}
  ]
}
